Results from patent US20200289434A1, “RAPIDLY IMPROVING ENDOTHELIAL FUNCTION, REDUCING ARTERIAL STIFFNESS AND REVERSING CALCIFICATION OF BLOOD VESSELS BY ADMINISTERING VITAMIN K” (KAYDENCE PHARMA AS, priority 2019, published 2020).
Values joined by “and” are separate entries in the source; they are usually repeats but may differ in a detail not shown here. Identical values can stand only once.

Tests used:
[1] = tested on: kidney transplantation patients; assay: Clinical study: pulse wave velocity measurement of arterial stiffness; type: in vivo, human; settings: kidney transplant patients, 360 ug/day, 8 weeks
Method: Clinical Study to study the efficacy and safety of Vitamin K2 supplementation on arterial stiffness, the rigidity of arterial walls, in kidney transplantation patients.
A clinical study was carried out. Arterial wall property measurements were taken at t=0 and t=8 weeks and show a dramatic improvement in arterial wall flexibility. This is good support for concluding that the ingestion of vitamin K, even over this short period, is an effective way of improving endothelial function, reducing arterial stiffness and reducing calcification. […] It is surprising and unexpected because calcification is a slow progressive process and it was thought that reversing this process would also be slow and progressive.
Participants were enrolled in a clinical trial in which the effects of vitamin K2 were determined for patients who had recently undergone a kidney transplant. At the beginning of the study, patients were subjected to a non-invasive pulse wave velocity measurement to measure arterial stiffness/flexibility, as well as blood analysis. The study participants were then instructed to receive a specific daily dose of MenaQ7 vitamin K2 menaquinone-7 (360 ug/day) for a total of 8 weeks. At the end of 8 weeks, patients were again examined with a follow-up examination, a non-invasive pulse wave velocity measurement and blood analysis and drug treatment was discontinued.

ApoE/LDLR−/− mice [2] = assay: Example 3 second part: MRI assessment of Ach-induced response in BCA and LCA, older mice; type: in vivo; settings: eight weeks, 24-week-old mice
Method: Magnetic resonance imaging (MRI) experiments were performed using a 9.4T scanner (BioSpec 94/20 USR, Bruker, Germany) located in the Department of Magnetic Resonance Imaging, Institute of Nuclear Physics, Polish Academy of Sciences in Krakow. During the experiment, mice were anaesthetized using isoflurane (Aerrane, Baxter Sp. z o. o., Poland, 1.7 vol %) in an oxygen and air (1:2) mixture and imaged in the supine position. Activity of the heart, respiration, and body temperature (maintained at 37° C. using circulating warm water) were monitored using a Monitoring and Gating System (SA Inc., Stony Brook, N.Y., USA).
Endothelial function was assessed based on vascular responses to acetylcholine (Ach) administration in brachiocephalic artery (BCA), left common carotid artery (LCA) (FIGS. 6 A and B) and abdominal aorta (AA) (FIG. 6C) as well as to responses to increase in flow (flow-mediated dilatation, FMD) in femoral artery (FA) (FIG. 6D) as described in Bar A, Skorka T, Jasinski K, Sternak M, Bartel Z, Tyrankiewicz U, et al. Retrospectively-gated MRI for in vivo assessment of endothelium-dependent vasodilatation and endothelial permeability in murine models of endothelial dysfunction. NMR Biomed 2016; 29(8):1088.; Sternak M, Bar A, Adamski M G, Mohaissen T, Marczyk B, Kieronska A, et al. The Deletion of Endothelial Sodium Channel α (αENaC) Impairs Endothelium-Dependent Vasodilation and Endothelial Barrier Integrity in Endotoxemia in Vivo. […]
Vasomotor response was examined by comparing two time-resolved 3D images of the vessels prior to and 25 minutes after intraperitoneal Ach administration (Sigma-Aldrich, Poznan Poland: 50 μl, 16.6 mg/kg), as well as prior to and 5 minutes after vessel occlusion. […] End-diastolic volumes of vessels were analyzed using ImageJ software 1.46r (NIH Bethesda, Md., USA) and scripts written in Matlab (MathWorks, Natick, Mass., USA). […]

ApoE/LDLR−/− mice [3] = assay: Example 2: nitrite and nitrate concentration in plasma (ENO-20); type: in vivo; settings: two months
Method: Nitrite (NO2−) and nitrate (NO3−) concentration in plasma—HPLC-based ENO-20
Blood samples were collected from heart into test tubes containing additional anticoagulant and centrifuged at 1000 g for 10 min at 4° C. The samples were used for HPLC measurement of nitrate (NO3^−) and nitrite (NO2^−) concentrations in plasma by an ENO-20 NOx Analyzer.

[4] = tested on: endothelial nitric oxide synthase (eNOS)-dependent nitric oxide (NO) production; assay: Example 3: endothelial NO production in ex vivo aorta by EPR; settings: 0.05 mg/kg b.w./day, vs untreated age-matched mice
Description: For measurements of endothelial nitric oxide synthase (eNOS)-dependent nitric oxide (NO) production, EPR spin-trapping with diethyldithiocarbamic acid sodium salt (DETC) was used ex vivo, as described in Przyborowski K, Proniewski B, Czarny J, Smeda M, Sitek B, Zakrzewska A, et al. Vascular Nitric Oxide-Superoxide Balance and Thrombus Formation after Acute Exercise. Med Sci Sport Exerc 2018:1. doi:10.1249/MSS.0000000000001589, with minor modifications. Isolated aorta cleared from surrounding tissue was opened longitudinally and preincubated with 10 μM L-NIL (N6-(1-Iminoethyl)-lysine, hydrochloride) in Krebs-HEPES buffer for 30 minutes at 37° C. in a well of a 48-well plate. Next, 250 μL of Fe(DETC)2 colloid was added and aorta was stimulated with calcium ionophore A23187 (the final concentration was 1 μM) and subsequently, incubated for 90 minutes at 37° C. Finally, aorta was weighed and frozen in liquid nitrogen (suspended in fresh buffer) into the middle of a 400 μL column of Krebs-Hepes buffer and stored at −80° C. until measured. EPR spectra were obtained using an X-band EPR spectrometer (EMX Plus, Bruker, Germany), equipped with a rectangular resonator cavity H102. Signals were quantified by measuring the total amplitude of the NO—Fe(DETC)2 after correction of baseline. The quantitative results of NO production assessed by EPR were expressed in AU/mg of tissue.

CC(C)=CCC/C(C)=C/CC/C(C)=C/CC/C(C)=C/CC/C(C)=C/CC/C(C)=C/CC/C(C)=C/CC1=C(C)C(=O)c2ccccc2C1=O [MK-7, menaquinone-7]
mean reduction in measured pulse-wave velocity [1]: 30% | change in volume of BCA after Ach injection (ApoE/LDLR−/− mice [2]; high dose 10 mg/kg b.w/day): 3.12% | change in volume of LCA after Ach injection (ApoE/LDLR−/− mice [2]; high dose 10 mg/kg b.w/day): 4.45% | change in volume of LCA after Ach injection (ApoE/LDLR−/− mice [2]; low dose 0.03 mg/kg b.w/day, listed as vitamin K2, 0.03 mg/kg/day): ~−3% and −3.92% | concentration of NO3− in plasma (ApoE/LDLR−/− mice [3]; 0.03 or 10 mg/kg b.w./day): did not change significantly | increase in NO2− concentration in plasma (ApoE/LDLR−/− mice [3]; high dose 10 mg/kg b.w./day): ~42% | increase in NO2− concentration in plasma (ApoE/LDLR−/− mice [3]; low dose 0.03 mg/kg b.w./day): about 58% | nitric oxide production in ex vivo aorta by EPR [4]: increased
